The values that follow come from patent US20170105953A1, “METHOD FOR SUPPRESSING DIABETES AND/OR HEPATIC LIPIDS USING TORMENTIC ACID” (priority 2015, published 2017).

The assay is described as follows: blood parameters in high-fat diet-fed mice. The class given is in vivo. Conditions: HF diet-fed C57BL/6J mice; for blood glucose / circulating TG (triglyceride) levels: week 12; for circulating TG (triglyceride) levels: vs HF group; for Blood profiles: FFA (plasma free fatty acid) / Blood profiles: Insulin / Blood profiles: Leptin / Blood profiles: TC (total cholesterol): mean ± SE, n=9. Here is the method:
For part 2, C57BL/6J mice (4 weeks old) were obtained from the National Laboratory Animal Breeding and Research Center. The mice were divided randomly into two groups after 7 days acclimation. […] The compositions of the experimental diets are given in previous studies. After 8 weeks, the high-fat treated mice were randomly subdivided into four groups (n=9) including PTA1 (0.06 g/kg/day), PTA2 (0.12 g/kg/day) or rosiglitazone (Rosi; 1% methylcellulose, 10 mg/kg body weight) (GlaxoSmithKline) or vehicle and treated by oral gavage one time per day from the 9th to 12th weeks, while the mice were still on the high-fat diet, whereas the CON and high-fat control (HF) mice were treated with vehicle only. At the end, food was withheld from the animals (from 10 p.m. to 10 a.m.). The next day, the mice were sacrificed for blood and tissue collection and analysis. Livers, skeletal muscles, and white adipose tissues (WATs) (including epididymal, mesenteric, and retroperitoneal WAT) were weighed and excised, followed by immediate freezing, and kept at −80° C. for target gene analysis. Heparin (30 units/mL) (Sigma) was added to blood samples. Plasma samples were collected within 30 min by centrifugation at 1600 g for 15 min at 4° C. Plasma was obtained for insulin and leptin assay.
Blood samples (0.8 mL) were collected from the retro-orbital sinus of fasted mice, and the glucose level was analyzed by the glucose oxidase method (model 1500; Sidekick Glucose Analyzer; YSI Inc., Yellow Springs, Ohio, USA). Plasma triglycerides (TG), total cholesterol (TC), and free fatty acids (FFA) were measured using commercial assay kits according to the manufacturer's directions (Triglycerides-E test, Cholesterol-E test, and FFA-C test, Wako Pure Chemical, Osaka, Japan). The levels of insulin and leptin in blood were analyzed by ELISA using a commercial assay kit according to the manufacturer's directions (mouse insulin ELISA kit, Sibayagi, Gunma, Japan; and mouse leptin ELISA kit, Morinaga, Yokohama, Japan).

The mark [1] stands for this setting: PTA1 0.06 g/kg/day oral gavage 4 weeks.
The mark [2] stands for this setting: PTA2 0.12 g/kg/day oral gavage 4 weeks.

For the molecule `C[C@@H]1CC[C@]2(C(=O)O)CC[C@]3(C)C(=CC[C@@H]4[C@@]5(C)C[C@@H](O)[C@H](O)C(C)(C)[C@@H]5CC[C@]43C)[C@@H]2[C@]1(C)O` [PTA, tormentic acid], under setting [1], the blood glucose is recorded as 96.3 mg/dL, the “circulating TG (triglyceride) levels” value was “decreased”, the “Blood profiles: FFA (plasma free fatty acid)” value is 2.15 ± 0.35 mequiv/L and the “Blood profiles: Insulin” value worked out at 101.7 ± 15.2 μU/mL. Further, under setting [1], the Blood profiles: Leptin is 2.35 ± 0.092 ng/mL and the “Blood profiles: TC (total cholesterol)” value is 167.0 ± 6.1 mg/dL. For the same molecule, under setting [2], the blood glucose is on record as 94.8 mg/dL, the “circulating TG (triglyceride) levels” value is given as “decreased”, the “Blood profiles: FFA (plasma free fatty acid)” value is 1.88 ± 0.29 mequiv/L and the “Blood profiles: Insulin” value worked out at 73.9 ± 11.8 μU/mL. In addition, under setting [2], the Blood profiles: Leptin is 1.78 ± 0.094 ng/mL and the “Blood profiles: TC (total cholesterol)” value worked out at 153.7 ± 6.9 mg/dL.
